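Exposure lasted 48 hours, with cells grown in 96-well plates and compounds tested at five concentrations. The concentration for 50% growth inhibition is given as GI50. TGI denotes the concentration required for complete inhibition of growth.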
Assays:
Assay in all cases: NCI tumour cell line growth inhibition, 48 h
[1] = test system: HCT-15 colon
[2] = test system: OVCAR-5 ovarian
[3] = test system: UACC-257 melanoma
[4] = test system: UO-31 renal
[5] = test system: SF-295 CNS
[6] = test system: SNB-19 CNS
[7] = test system: M14 melanoma
[8] = test system: RXF 393 renal
[9] = test system: HS 578T breast
[10] = test system: MDA-MB-231 breast
[11] = test system: SK-MEL-2 melanoma

SMILES | TGI [1] [µM] | TGI [2] [µM] | TGI [3] [µM] | TGI [4] [µM] | TGI [5] [µM] | TGI [6] [µM] | TGI [7] [µM] | TGI [8] [µM] | TGI [9] [µM] | TGI [10] [µM] | TGI [11] [µM] | GI50 [9] [µM]
COc1cc(CCc2cccnc2)cc(OC)c1OC | > 100 | > 100 | > 100 | > 100 | > 100 | > 100 | > 100 | > 100 | – | – | – | –
Nc1nc(N)c2ncn(CC3CCC(CO)C3)c2n1 (configuration not stated) | > 100 | > 100 | > 100 | > 100 | > 100 | > 100 | > 100 | > 100 | > 100 | > 100 | > 100 | –
C=C(C)C(=O)CC[C@@H](C)[C@H]1[C@@H](OC2OC(CO)C(O)C(O)C2O)C[C@@]2(C)[C@@H]3C[C@H](O)C4C(C)(C)[C@@H](OC5OC(CO)C(O)C(O)C5O)CC[C@@]45C[C@@]35CC[C@]12C (some centres not stated) | > 100 | > 100 | > 100 | > 100 | > 100 | > 100 | > 100 | – | > 100 | > 100 | > 100 | –
CN(C)CC(/C(Cc1ccccc1)=N\NC(=O)C[n+]1ccccc1)c1ccccc1 (configuration not stated) | > 100 | > 100 | > 100 | > 100 | > 100 | > 100 | > 100 | > 100 | – | – | > 100 | –
CC(=O)NC1C(OCc2ccccc2)OC(CO)C(O)C1OCC(=O)NC(C)C(=O)NC(CCC(=O)NCCCCNc1ccc([N+](=O)[O-])c2[nH]c3ccccc3c(=O)c12)C(N)=O (configuration not stated) | > 100 | > 100 | – | > 100 | > 100 | > 100 | > 100 | – | 75.2 | > 100 | > 100 | –
[O-]/[N+](=C\c1ccccc1)[C@H](COCc1ccccc1)c1ccccc1 | – | > 100 | > 100 | > 100 | > 100 | > 100 | – | > 100 | – | – | > 100 | –
CC[C@@]1(O)C(=O)OCc2c1cc1n(c2=O)Cc2c-1nc1ccccc1c2/C=N\NC(=O)C(N)CC(C)C (some centres not stated) | > 36.2 | > 68.6 | 1.81 | 0.201 | 0.694 | > 100 | 0.648 | 0.154 | > 100 | > 100 | 2.99 | –
O=C1c2ccccc2C2CNC1(O)c1ccccc12 (configuration not stated) | > 100 | > 100 | > 100 | > 100 | > 100 | > 100 | > 100 | > 100 | > 100 | > 100 | > 100 | –
O=C(Cn1c(=O)oc2ccc(C(=O)c3ccc(F)cc3)cc21)c1ccc([N+](=O)[O-])cc1 | > 100 | > 100 | > 100 | 84.4 | – | > 100 | > 100 | > 100 | 53.5 | > 100 | 86.2 | –
Cc1ccc(S(=O)(=O)c2scc(-c3ccccc3)c2C)cc1 | > 100 | – | > 100 | > 100 | > 100 | > 100 | > 100 | > 100 | > 100 | > 100 | > 100 | –
C=C1C(=O)OC2/C=C(\C)C(OC(C)=O)C3OC3C(C)(O)CC(OC(=O)/C(C)=C/C)C12 (configuration not stated) | 30.8 | 32.3 | 28.8 | 23 | 42.4 | 33.7 | 16 | 19.3 | – | – | 20.6 | –
COc1cc(/C=C/C(=O)OCC23CC[C@@]4(C(=O)O)CCC(C)[C@H](C)C4C2=CCC2[C@@]4(C)CC[C@H](O)C(C)(C)C4CC[C@]23C)ccc1O (some centres not stated) | 56.3 | 46.4 | 39.4 | – | 73.9 | > 100 | 49.5 | 47.4 | 17.1 | > 100 | 47.5 | –
O=C1C(N2CCCC2)=CC(=O)c2c(O)c(N3CCCC3)c(Cl)c(O)c21 | – | – | > 10 | > 10 | > 10 | > 10 | > 10 | > 10 | > 10 | > 10 | > 10 | –
COc1ccc(-c2nc(N)c(C#N)c3c2CCS(=O)(=O)c2ccc(C)cc2-3)cc1OC | > 100 | > 100 | > 100 | > 100 | – | > 100 | > 100 | – | 77.6 | > 100 | 85.2 | –
O=C(COc1ccc(OCC(=O)N2C(=O)CC(=O)N(c3ccccc3)C2=S)cc1)N1C(=O)CC(=O)N(c2ccccc2)C1=S | > 100 | > 100 | > 100 | > 100 | > 100 | > 100 | > 100 | 95 | – | > 100 | > 100 | –
COc1cccc2c1OC1c3ccccc3OCC1C2 (configuration not stated) | > 100 | > 100 | > 100 | > 100 | > 100 | – | > 100 | – | – | > 100 | > 100 | –
CC12CC3C(CC1SCC(=O)O2)C3(C)C (configuration not stated) | > 100 | > 100 | > 100 | > 100 | > 100 | – | > 100 | – | – | – | > 100 | –
CCCCNC1CCC2(SCCS2)c2[nH]c3ccccc3c21 (configuration not stated) | – | > 100 | 15.1 | > 89.4 | > 100 | > 100 | > 65.1 | > 64.3 | > 82.1 | > 62.6 | – | –
O=C(Nc1c(O)[nH]c(=S)[nH]c1=O)c1ccccn1 | > 100 | > 100 | > 100 | > 100 | > 100 | > 100 | > 100 | – | – | – | > 100 | –
CC[n+]1cnc(N)c2c(-c3ccc(Cl)cc3)cn(-c3ccc(C)cc3)c21 | 32.6 | 29.7 | 6.06 | 21.5 | 25.3 | 28.8 | 4.14 | 18.2 | – | 31.7 | 36 | –
CC1(C)O[C@H]2Cn3c(c(C#N)c4ccccc43)[C@H]2O1 | > 100 | > 100 | – | > 100 | > 100 | > 100 | > 100 | – | > 100 | > 100 | > 100 | –
O=C1c2ccccc2C2(O)Nc3cc(O)ccc3C12O (configuration not stated) | > 100 | > 100 | – | – | > 100 | > 100 | > 100 | > 100 | – | – | > 100 | –

SMILES | TGI [1] [µM] | TGI [2] [µM] | TGI [3] [µM] | TGI [4] [µM] | TGI [5] [µM] | TGI [6] [µM] | TGI [7] [µM] | TGI [8] [µM] | TGI [9] [µM] | TGI [10] [µM] | TGI [11] [µM] | GI50 [9] [µM]
C/C=C/[C@@]1(OC(=O)c2ccccc2)C[C@@H]2CCCC[C@@H]21 | 36.9 | 30.8 | 34.1 | 22.9 | 33.3 | 31.6 | 32.3 | – | 27.2 | 36.3 | 30.3 | –
S=c1sc2c(Cl)ncnc2n1-c1ccccc1 | 28.4 | 53.8 | 33.6 | 32.7 | 25.5 | 32.9 | 26.3 | 28.9 | – | – | 21.3 | –
COc1ccc(Cn2c(C)nc3c2C(=O)c2ccccc2C3=O)cc1 | > 75 | – | 24.7 | 57.4 | 58.2 | > 75 | 23.5 | 63.4 | – | – | 29.8 | –
CCOC(=O)CCCn1nnc(C(=O)OCC)c1C(=O)OCC | > 100 | – | > 100 | > 100 | > 100 | > 100 | – | > 100 | > 100 | > 100 | > 100 | –
CCCC(=O)O | > 18700 | > 18700 | – | 10200 | > 18700 | > 18700 | > 18700 | 16100 | > 18700 | 18000 | > 18700 | 4950
COCOc1ccc(C(=O)C(C)c2ccc(OCOC)cc2OCOC)c(O)c1 (configuration not stated) | > 100 | > 100 | > 100 | > 100 | – | > 100 | > 100 | > 100 | – | – | – | –
O=C1CSC2(CC(/C=C/c3ccccc3)=NN2c2cccc(S(=O)(=O)O)c2)N1c1nc2ccccc2s1 (configuration not stated) | > 100 | 56.5 | > 100 | 35.7 | – | 51.7 | > 100 | 51.7 | > 100 | 47.8 | 49.5 | –
Nc1nc(Cl)cc(NCC2(O)CC(CO)C2)n1 (configuration not stated) | > 100 | > 100 | > 100 | > 100 | > 100 | > 100 | – | > 100 | > 100 | > 100 | > 100 | –
C1CC2=C(C1)[Se]C(=C1Sc3nsnc3S1)[Se]2 | > 100 | > 100 | > 100 | > 100 | > 100 | > 100 | > 100 | – | > 100 | > 100 | > 100 | –
O=C1c2ccccc2C(=O)N1n1c(Cc2ccccc2)n[nH]c1=O | > 100 | > 100 | > 100 | > 100 | > 100 | > 100 | > 100 | – | > 100 | > 100 | > 100 | –
c1csc(-c2ccc(-c3ccc(-c4ccc(-c5cccs5)s4)s3)s2)c1 | > 100 | > 100 | > 100 | > 100 | > 100 | – | > 100 | > 100 | > 100 | – | – | –
COc1c2c(c3c(c1C1OC(C)[C@@H](C)O1)CC(C)(C)O3)C(=O)c1ccccc1C2=O (some centres not stated) | > 100 | > 100 | > 100 | > 100 | > 100 | > 100 | > 100 | > 100 | – | – | > 100 | –
CO/C(=N\N=C\c1cc(OC)ccc1OC)c1ccncc1 | > 10 | > 10 | – | > 10 | > 10 | > 10 | – | > 10 | – | – | > 10 | –
CCN(CC)CCNC(=O)c1ccccc1NC(=O)C(=O)Nc1ccccc1C(=O)NCCN(CC)CC | > 100 | > 100 | 35.5 | > 100 | > 100 | > 100 | 33.9 | – | – | – | > 100 | –
CCC(C)[C@@H](NCc1ccccc1)[C@H](OCc1ccccc1)[C@@H]1COC(C)(C)O1 (some centres not stated) | 31.6 | 90.8 | 38.1 | 41.3 | 60.2 | 57.3 | > 100 | – | 70.7 | 40.4 | 35 | –
Cc1nc2c(=S)[nH]ncc2[nH]1 | > 100 | > 100 | > 100 | > 100 | > 100 | > 100 | > 100 | – | – | > 100 | > 100 | –
O=C1N[C@H]2c3c(Cl)sc(Cl)c3/C(=N/O)[C@H]2O1 | > 100 | > 100 | > 100 | > 100 | – | > 100 | > 100 | > 100 | – | > 100 | > 100 | –
CC1=NN(c2nc(N)nc(-c3ccccc3S(N)(=O)=O)n2)C(C)(C)C1 | > 100 | > 100 | > 100 | > 100 | > 100 | – | 87.2 | > 100 | > 100 | > 100 | 57 | –
CC(=O)OCC1OC(Nc2[nH]c(=O)n(C)c(=O)c2-c2csc(N)n2)C(OC(C)=O)C(OC(C)=O)C1OC(C)=O (configuration not stated) | > 100 | > 100 | > 100 | > 100 | > 100 | > 100 | > 100 | – | – | – | > 100 | –
C1=C(c2ccccc2)CN(c2ccccc2)OC1 | > 100 | > 100 | – | > 100 | – | > 100 | > 100 | > 100 | – | – | > 100 | –
O=C(O)[C@H]1[C@@H](C2CCCCC2)O[C@@H](C2CCCCC2)O[C@H]1C(F)(F)F | 88.1 | 47.4 | 96.1 | 66.2 | 39.5 | 81.3 | 39.4 | 48.4 | 58.8 | 36.2 | – | –
COc1ccc(/C=C2\CN(C)Cc3c2nc(N)nc3-c2ccc(OC)cc2)cc1 | – | > 100 | – | > 100 | > 100 | > 100 | > 100 | > 100 | – | – | > 100 | –

Source: PubChem BioAssay (NCI)
